Data from patent US20170314205A1, “Microorganism Control System and Method of Using the Same” (Ecolab USA Inc., priority 2014, published 2017).

Assay: Effect of acid addition on pH and available chlorine of urea-stabilized halogen-containing bactericide
Assay type: physicochemical
Conditions: for Solution pH / Available chlorine: final 30 ml; for Available chlorine: blank 2550
Description: Then, 5 beakers were provided and separately added with 1 ml of the prepared urea-stabilized halogen-containing bactericide. After that, 29 ml of water was added to the first beaker for dilution (blank control), while the other 4 beakers were separately added with 20% sulfuric acid (0.5 ml or 1.0 ml) or 20% citric acid (1.0 ml or 2.0 ml), and added with water to reach a final volume of 30 ml. Finally, pH values and available chlorine contents (ppm) of solutions in the 5 beakers were measured.
Further, 10% aminosulfonic acid (which was used to replace sulfuric acid or citric acid, which dosage was 1.1 ml or 1.24 ml) was used to repeat the above experiments. […] In addition, after aminosulfonic acid was added, pH values and available chlorine contents (ppm) in solutions were measured, and after standing for 40 min, 120 min, and 240 min, available chlorine contents (ppm) of solutions were measured again. […]

[1] = acid volume 0.5 ml to 1 ml urea-stabilized bactericide (12.5% hypochlorite)
[2] = acid volume 1.0 ml to 1 ml urea-stabilized bactericide (12.5% hypochlorite)
[3] = acid volume 2.0 ml to 1 ml urea-stabilized bactericide (12.5% hypochlorite)

In the case of `NS(=O)(=O)O` [Aminosulfonic acid, aminosulfonic acid], the “Solution pH after mixing” value (10% acid 1.1 ml to 1 ml urea-stabilized bactericide (8.5% hypochlorite)) is reported as 8.46, the “Available chlorine after mixing” value (10% acid 1.1 ml, 0 min) is reported as 1275 ppm and the “Available chlorine after mixing” value (10% acid 1.1 ml, 40 min) is reported as 1275 ppm. The “Available chlorine after mixing” value (10% acid 1.1 ml, 120 min) was 1325 ppm, the “Available chlorine after mixing” value (10% acid 1.1 ml, 240 min) was 1400 ppm and the “Solution pH after mixing” value (10% acid 1.24 ml to 1 ml urea-stabilized bactericide (8.5% hypochlorite)) was 5.96. The “Available chlorine after mixing” value (10% acid 1.24 ml, 0 min) was 1300 ppm, the “Available chlorine after mixing” value (10% acid 1.24 ml, 40 min) was 1325 ppm and the “Available chlorine after mixing” value (10% acid 1.24 ml, 120 min) was 1475 ppm. For the same compound, the “Available chlorine after mixing” value (10% acid 1.24 ml, 240 min) was 1250 ppm and the “Time for which available chlorine content of solution is maintained” value (urea-stabilized bactericide with pH regulated by aminosulfonic acid) was “at least 240 min”.
With `O=S(=O)(O)O` [20% sulfuric acid, sulfuric acid, reference compound] the “Solution pH” value [1] was 7.35, the Available chlorine [1] was 750 ppm and the “Solution pH” value [2] was 2.15. It also gave an Available chlorine [2] of 455 ppm.
For `O=C(O)CC(O)(CC(=O)O)C(=O)O` [20% citric acid, citric acid, reference compound], the “Solution pH” value [2] was 7.75, the Available chlorine [2] was 1250 ppm and the “Solution pH” value [3] was 3.65. It also gave an Available chlorine [3] of 725 ppm.
